From patent US8901337B2, “Metal complexes having dual histone deacetylase inhibitory and DNA-binding activity” (Royal College of Surgeons in Ireland, priority 2009, dated 2014)
Read-outs that look alike come from different tables or passages of the source.

Experiments:
[1] = system: cisplatin resistant ovarian cancer cell line A2780 cisR; assay: MTS in vitro cytotoxicity, A2780 cisR; type: cell-based, human; conditions: 72 hours; for IC50: MTS
Procedure: (§1) Cells were cultured in the appropriate media. […] In order to retain resistance 1 μM cisplatin was added to the media of the A2780 cisR cells every third passage. A2780 cisR cells are resistant to cisplatin through a combination of decreased uptake, enhanced DNA repair/tolerance, and elevated reduced glutathione levels
(§2) All cells were kept in a humidified atmosphere with 5% CO2 at 37° C.; cells from confluent monolayers were removed from flasks by trypsin/EDTA solution and their viability determined by the trypan blue exclusion test.
(§3) Cell growth was determined by the [3-(4,5-dimethylthiazol-2-yl)-5-(3-carboxymethoxyphenyl)-2-(4-sulfophenyl)-2H-tetrazolium, inner salt, (MTS test, Promega, Southampton, UK), a colorimetric assay based on the ability of the viable cells to reduce a soluble yellow tetrazolium salt to blue formazan. 10,000 ovarian cancer cells or 3,000 fibroblast cells for example were seeded per well onto 96-well plates in 100 μl of the appropriate culture medium. 24 hr after sowing the cells, the media was removed and the cells were treated by adding 100 μl of the compound media solutions at the appropriate concentrations. cis-[Pt(NH3)2(malSAHA−2H)], cisplatin and cis-[Pt(NH3)2(mal)] were prepared freshly in cell culture media. […] The maximum percentage of dmso present in any well was less than 0.1% (v/v). cis-[Pt(NH3)2(malBel—2H)], belinostat and malbelinostat were freshly prepared in dimethyl formamide (DMF) and diluted in culture media prior to the MTS assay. The maximum percentage of DMF present in any well was 0.5% (v/v). A range of concentrations between 1 μM and 100 μM was used.
(§4) After 72 hr of treatment, 20 μl of the MTS reagent was added to each well and the plates incubated for 2 hr at 37° C. […] The percentages of surviving cells relative to untreated controls were determined.

[2] = system: A2780 P (ovarian cancer cells); assay: Cellular uptake of Pt (FAAS), A2780 P; type: cell-based, human; conditions: for Uptake of Pt complexes into A2780 P: 10 μM
Procedure: Cellular uptake of Pt compounds was measured in SKBR, SW480, A549, A2780P and CH1 cells. […] The cell monolayers at the end of the incubation with the Pt complexes were washed (twice) with ice-cold phosphate buffered saline (PBS), trypsinized and harvested into cold (4° C.) PBS. Cell suspensions were centrifuged and the pellets were stored in PBS at −80° C. until assayed. Afterward, the pellets were digested by high pressure microwave mineralization and Pt content was determined by flameless atomic absorption spectrophotometry (FAAS). The results of cellular Pt uptake were corrected for adsorption effects. All experiments were made in triplicate.^17

A549 (lung cancer cells) = assay: Cellular uptake of Pt (FAAS), A549; type: cell-based; conditions: 10 μM, 72 hours treatment
Procedure: (§5) Cellular uptake of Pt compounds was measured in SKBR, SW480, A549, A2780P and CH1 cells. The cells were seeded in 60 mm tissue culture dishes with 10 mL of their respective medium and after overnight incubation, the cells were treated with the Pt complexes for 72 h at 10 μM concentration. The cell monolayers at the end of the incubation with the Pt complexes were washed (twice) with ice-cold phosphate buffered saline (PBS), trypsinized and harvested into cold (4° C.) PBS. Cell suspensions were centrifuged and the pellets were stored in PBS at −80° C. until assayed. Afterward, the pellets were digested by high pressure microwave mineralization and Pt content was determined by flameless atomic absorption spectrophotometry (FAAS). The results of cellular Pt uptake were corrected for adsorption effects. All experiments were made in triplicate.^17

[3] = system: non-tumorigenic human dermal fibroblast cell line (NHDF); assay: MTS in vitro cytotoxicity, NHDF; type: cell-based; conditions: 72 hours; for IC50: MTS
Procedure: In addition Normal Neonatal Human Dermal Fibroblast, NHDF, cells were cultured in Fibroblast Basal Medium (FBM®, Clonetics, Walkersville, USA) supplemented with hFGF-B, insulin, 5% FBS and gentamicin/amphotericin-B (FGM®-2 SingleQuots, Clonetics, Walkersville, USA).
as §2, §3, §4

cell line (CH1) = assay: MTS in vitro cytotoxicity, CH1; type: cell-based; conditions: 72 hours, Table 1, read-out: IC50 values against CH1
Procedure: as §2, §3, §4

[4] = system: ovarian cancer cell line A2780 P; assay: MTS in vitro cytotoxicity, A2780 P; type: cell-based, human; conditions: 72 hours; for IC50: MTS
Procedure: as §1, §2, §3, §4

[5] = system: lung cancer cell line (A549); assay: MTS in vitro cytotoxicity, A549; type: cell-based; conditions: 72 hours, Table 1, read-out: IC50 values against A549
Procedure: as §2, §3, §4

CH1 (cancer cells) = assay: Cellular uptake of Pt (FAAS), CH1; type: cell-based; conditions: 10 μM, 72 hours treatment
Procedure: as §5

A2780 P cells = assay: Morphological analysis (methylene blue/eosin and DAPI staining), A2780 P; type: cell-based, human; conditions: IC50 and IC75, 72 hr
Procedure: Preparations of A2780 P and A2780-cisR cells were exposed to test agents for 72 hr and stained with methylene blue and eosin^19. Drug-treated cells were grown in petri dishes, washed once with PBS, once with PBS:methanol (1:1, v/v), and then fixed in 100% (v/v) methanol for 10 min. Following fixation, cell monolayers were rinsed with anhydrous methanol and stained with methylene blue and eosin for 2 min. Monolayers were then agitated for a further 2 min, destained by rinsing under a gentle stream of water and then finally rinsed with distilled water. Phase contrast microscopy was carried out using a Ceti-phase contrast microscope.
Drug-treated cells were also stained using a DNA-binding agent commonly used to stain nuclei and visualise nuclear morphology and DNA condensation, namely 4,6-diamidino-2-phenylindole (DAPI). Briefly, a monolayer of drug-treated cells was washed in PBS and fixed with 4% (w/v) paraformaldehyde for 30 min at room temperature. These cells were then permeabilized with 0.2% (v/v) Triton X in PBS and incubated with 1 μg/ml of DAPI for 30 min. Cells were again washed three times with PBS and viewed using a fluorescent microscope with 340/380 nm excitation filter at 250× magnification. Apoptotic cells were confirmed by identification of intensely stained, fragmented nuclei and condensed chromatin.

[6] = system: A2780 cisR (cisplatin resistant ovarian cancer cells); assay: Cellular uptake of Pt (FAAS), A2780 cisR; type: cell-based, human; conditions: 10 μM, 24 hours treatment
[7] = Table 1, read-out: IC50 values against A2780cisR
[8] = Table 1, read-out: IC50 values against NHDF
[9] = Table 1, read-out: IC50 values against A2780 P
[10] = Table 5, read-out: IC50 (μM) ± S.E.M. against A2780CisR
[11] = Table 5, read-out: IC50 (μM) ± S.E.M. against NHDF
[12] = Table 5, read-out: IC50 (μM) ± S.E.M. against A2780P

SMILES	IC50 [1, 7] [µM]	Uptake of Pt complexes into A2780 P ([2]; 72 hours treatment) [pmol Pt/2 × 10^6 cell]	Uptake of Pt complexes into A549 (A549 (lung cancer cells)) [pmol Pt/2 × 10^6 cell]	IC50 [3, 8] [µM]	selectivity for cancer cell lines over normal cell line NHDF ([3]; cytotoxicity)	IC50 (cell line (CH1)) [µM]	IC50 [4, 9] [µM]	IC50 [5] [µM]	Uptake of Pt complexes into CH1 (CH1 (cancer cells)) [pmol Pt/2 × 10^6 cell]	IC50 [1, 10] [µM]	activity against cisplatin resistant A2780 cisR (in words) ([1]; cytotoxicity)	cellular morphology and integrity of DNA (A2780 P cells)	Uptake of Pt complexes into A2780 P ([2]; 24 hours treatment) [pmol Pt/2 × 10^6 cell]	uptake by cancer cells (in words) ([2]; 24 hours treatment, A2780 P and A2780 cisR)	IC50 [3, 11] [µM]	Uptake of Pt complexes into A2780 cisR [6] [pmol Pt/2 × 10^6 cell]	IC50 [4, 12] [µM]	selectivity for A2780 P over normal cell line NHDF ([4]; cytotoxicity)
[NH2][Pt]1([NH2])[O]C(=O)C(Cc2ccc(NC(=O)CCCCCCC(=O)NO)cc2)C(=O)[O]1 [cis-[Pt(NH3)2(malSAHA−2H)], cis-[Pt(NH3)2(malSAHA−2H)].3H2O]	70 ± 3.5	5535 ± 865	6419 ± 619	83 ± 7.6	displays selectivity for cancer cell lines over representative normal cell line NHDF	3.8 ± 0.5	9 ± 3.1	12.7 ± 1.8	1595 ± 158	–	–	–	–	–	–	–	–	–
[NH2][Pt]1([NH2])[O]C(=O)C(Cc2ccc(NS(=O)(=O)c3ccc(/C=C/C(=O)NO)cc3)cc2)C(=O)[O]1 [cis-[Pt(NH3)2(malBel−2H)], cis-[Pt(NH3)2(malBel−2H)].1.5H2O]	–	–	–	–	–	–	–	–	–	11.7 ± 0.9	retains activity against A2780 cisR cell line	considerable thinning of the monolayer, attenuation of cells and the nuclei to be intensively stained and fragmented	154 ± 10	is taken up by cancer cells after 24 hours treatment	33.9 ± 2	42.3 ± 5.3	7.6 ± 0.3	displays selectivity for A2780 P cancer cell line over representative normal cell line NHDF
N.N.[Cl][Pt][Cl] [cisplatin, cis-[Pt^II(NH3)2Cl2], reference compound]	28.5 ± 1.5	612.25 ± 107.75	614.85 ± 94.85	10 ± 1.8	–	1 ± 0.5	2.9 ± 0.1	6.3 ± 0.1	145.4 ± 21.8	9.8 ± 1	–	considerable thinning of the monolayer, attenuation of cells and the nuclei to be intensively stained and fragmented	290 ± 35	–	2.4 ± 0.6	98 ± 11	1.3 ± 0.1	–
